Reference: PubChem BioAssay (NCI)
“And” between values parts separate entries of the source, which are not always exact repeats. Equal values may be shown once.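 A five-concentration, 48-hour dose response in 96-well plates underlies each endpoint, interpolated linearly between surrounding concentrations. GI50 marks 50% less growth. At the TGI there is no net growth.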

What was measured:
Assay in all cases: NCI anticancer screen, dose series, 48 h
NCI-H522 lung = system: NCI-H522 lung
HCC-2998 colon = system: HCC-2998 colon
DU-145 prostate = system: DU-145 prostate
EKVX NSCLC = system: EKVX NSCLC
HOP-62 NSCLC = system: HOP-62 NSCLC
HOP-92 NSCLC = system: HOP-92 NSCLC
SN12C renal = system: SN12C renal
CAKI-1 renal = system: CAKI-1 renal
SF-295 CNS = system: SF-295 CNS
UACC-257 melanoma = system: UACC-257 melanoma

| SMILES | GI50 (NCI-H522 lung) | TGI (NCI-H522 lung) | GI50 (HCC-2998 colon) | TGI (HCC-2998 colon) | GI50 (DU-145 prostate) | TGI (DU-145 prostate) | GI50 (EKVX NSCLC) | TGI (EKVX NSCLC) | GI50 (HOP-62 NSCLC) | TGI (HOP-62 NSCLC) | GI50 (HOP-92 NSCLC) | TGI (HOP-92 NSCLC) | GI50 (SN12C renal) | TGI (SN12C renal) | GI50 (CAKI-1 renal) | TGI (CAKI-1 renal) | GI50 (SF-295 CNS) | TGI (SF-295 CNS) | GI50 (UACC-257 melanoma) | TGI (UACC-257 melanoma) |
| --- | --- | --- | --- | --- | --- | --- | --- | --- | --- | --- | --- | --- | --- | --- | --- | --- | --- | --- | --- | --- |
| COc1ccc(/C=C(\C#N)c2cc3ccccc3n2C)cc1 | 0.407 µM | 5.03 µM | 0.865 µM | 5.98 µM | 0.502 µM | > 100 µM | 0.765 µM | > 100 µM | 0.497 µM | > 100 µM | 1.5 µM | > 100 µM | 0.58 µM | > 100 µM | 0.437 µM | > 100 µM | 0.355 µM | > 28.2 µM | 3.32 µM | > 100 µM |
| O=[N+]([O-])c1ccc2c(N=Nc3c(O)ccc4ccccc34)c(O)cc(S(=O)(=O)O)c2c1 | 17.4 µM | 50 µM and > 100 µM |  | > 100 µM |  | > 100 µM | 39.4 µM | > 100 µM | 17.1 µM | 50 µM and > 100 µM |  | 50 µM | 59 µM | 50 µM and > 100 µM |  | 50 µM | 29.5 µM | 50 µM and > 100 µM | 32 µM | 50 µM and > 100 µM |
| Cn1cnc([N+](=O)[O-])c1Sc1ncnc2c1ncn2C1OC(CO)C(O)C1O (stereo unspecified) | 9.62 µM | > 100 µM | 5.02 µM | > 100 µM | 1.87 µM | > 100 µM | 86.2 µM | > 100 µM | 2 µM | > 100 µM | 31.3 µM | > 100 µM | 41.9 µM | > 100 µM | 3.53 µM | > 100 µM | 2.95 µM | > 100 µM | 24.5 µM | > 100 µM |
| Oc1ccccc1-n1c(-c2ccccc2)ccc1-c1ccccc1 | 2.74 µM | 12.8 µM | 11.2 µM | 29.2 µM | 7 µM | 19.7 µM | 2.64 µM | 25.3 µM | 11.3 µM | 24.2 µM | 1.94 µM | 8.54 µM | 3.62 µM | 16 µM | 3.85 µM | 18.1 µM | 6.6 µM | 21 µM | 4.2 µM | 27.3 µM |
